From patent US20200277268A1, “PENTAFLUOROPHENYL SULFONAMIDE COMPOUNDS, COMPOSITIONS AND USES THEREOF” (DALRIADA THERAPEUTICS INC., priority 2017, published 2020)
pIC50: −log10 of the molar value. “Also recorded” adds a separate entry of the source.

Tests used:
PL-21 = test: Cell viability, AML PL-21; assay type: cell-based; conditions: Table 4
Procedure: (§1) The anti-cancer efficacy of exemplary compounds of the application were assessed in vitro against different cancer cell lines. Cell viability was examined following treatment at various concentrations of inhibitor (0.097656-50 μM) using a CellTiter-Blue® cell viability assay. 1×10^4 cells/well were plated in 96-well assay plates in culture medium. All cells were grown in DMEM, IMDM and RPMI-1640 supplemented with 10% fetal bovine serum (FBS). In some instances, FBS was removed for periods ranging from 16-24 hours, and re-introduced with test compound addition. After 24 hrs, test compounds and vehicle controls were added to appropriate wells such that the final volume was 100 μl in each well. The cells were cultured for the desired test exposure period (72 hours) at 37° C. and 5% CO2. The assay plates were removed from […] incubator and 20 μl/well of CellTiter-Blue® Reagent was added. The plates were incubated using standard cell culture conditions for 1-4 hours. Afterwards, the plates were shaken for 10 seconds and florescence was recorded at 560/590 nm using a Cytation 3 spectrophotometer. IC50 values were determined using non-linear regression analysis with GraphPad Prism 6.0 (GraphPad Software Inc.). […]

U87MG = test: Cell viability, glioblastoma U87MG; assay type: cell-based; conditions: Homo sapiens, U-87 MG; glioblastoma cell line
Procedure: (§2) The anti-cancer efficacy of exemplary compounds of the application were assessed in vitro against different cancer cell lines. […] 1×10^4 cells/well were plated in 96-well assay plates in culture medium. […] In some instances, FBS was removed for periods ranging from 16-24 hours, and re-introduced with test compound addition. After 24 hrs, test compounds and vehicle controls were added to appropriate wells such that the final volume was 100 μl in each well. The cells were cultured for the desired test exposure period (72 hours) at 37° C. and 5% CO2. The assay plates were removed from […] incubator and 20 μl/well of CellTiter-Blue® Reagent was added. The plates were incubated using standard cell culture conditions for 1-4 hours. Afterwards, the plates were shaken for 10 seconds and florescence was recorded at 560/590 nm using a Cytation 3 spectrophotometer. IC50 values were determined using non-linear regression analysis with GraphPad Prism 6.0 (GraphPad Software Inc.).

UBA5 = target: T1, UBA5 (Homo sapiens, UniProt Q9GZZ9); test: 19F NMR study of covalent modification of UBA5; assay type: binding; conditions: 100 μM compound, 100 μM UBA5, 2 hours at 37° C.
T1 construct: Constructs of full length human UBA5 (1-404) were cloned into a pET28b(+) vector; His-SUMO (N, cleaved yes); made in house; host or cells: E. coli BL21 (DE3) RILP
Procedure: Spectra were normalized and referenced according to the fluorine peak of 5-fluoro-Trp.
(§3) To assess potential reactivity of I-1 against Cys containing proteins, a series of ^19F NMR studies were conducted with BSA, lysozyme, STAT3, and STATS. […] All samples were prepared in 100 mM HEPES pH 7.4, and 100 μM 5-fluoro-Trp, with a final concentration of 10% D20 and 10% DMSO. The samples were incubated for 2 hours at 37° C. prior to data collection. All spectra were normalized and referenced according to the fluorine peak of 5-fluoro-Trp.
To evaluate covalent modification of UBA5 by I-1, ^19F NMR studies were conducted in accordance with the procedure described in Example 80.

OCI-AML3 = test: Cell viability, AML OCI-AML3; assay type: cell-based; conditions: Homo sapiens, OCI-AML-3, Table 4
Procedure: as §1

bromodomains = test: BROMOscan bromodomain screen (DiscoverX); assay type: binding; conditions: 10 μM
Procedure: T7 phage strains displaying bromodomains were grown in parallel in 24-well blocks in an E. coli host derived from the BL21 strain. E. coli were grown to log-phase and infected with T7 phage from a frozen stock (multiplicity of infection=0.4) and incubated with shaking at 32° C. until lysis (90-150 minutes). The lysates were centrifuged (5,000×g) and filtered (0.2 μm) to remove cell debris. […] The liganded beads were blocked with excess biotin and washed with blocking buffer (SeaBlock (Pierce), 1% BSA, 0.05 Tween 20, 1 mM DTT) to remove unbound ligand and to reduce non-specific phage binding. […] Test compounds were prepared as 1000× stocks in 100% DMSO and subsequently diluted 1:25 in monoethylene glycol (MEG). The compounds were then diluted directly into the assays such that the final concentrations of DMSO and MEG were 0.1% and 2.4%, respectively. All reactions were performed in polypropylene 384-well plates in a final volume of 0.02 ml. […] The bromodomain concentration in the eluates was measured by qPCR.
I-1 test compound was tested at 10 μM, and results for primary screen binding interactions are reported as ‘% Ctrl,’ where lower numbers indicate stronger hits in the matrix. % Ctrl is calculated with the following formula:
test compound=I-1 negative control=DMSO (100% Ctrl) positive control=control compound (0% Ctrl)

AR230 = test: Cell viability, CML AR230; assay type: cell-based; conditions: Table 4
Procedure: as §1

BSA, lysozyme, STAT3/5 = test: 19F NMR screen against Cys-containing proteins; assay type: binding; conditions: 100 μM I-1, 2 hours at 37° C.
Procedure: as §3

D425 = test: Cell viability, medulloblastoma D425; assay type: cell-based; conditions: medulloblastoma cell line
Procedure: as §1

[1] = Stability to glutathione, half-life by 19F NMR
MV4-11 = test: CellTiter-Blue cell viability, MV4-11; assay type: cell-based; conditions: Homo sapiens, MV4-11
Procedure: The anti-cancer efficacy of exemplary compounds of the application were assessed in vitro against different cancer cell lines. Cell viability was examined following treatment at various concentrations of inhibitor (0.097656-50 μM) using a CellTiter-Blue® cell viability assay. 1×10^4 cells/well were plated in 96-well assay plates in culture medium. All cells were grown in DMEM, IMDM and RPMI-1640 supplemented with 10% fetal bovine serum (FBS). In some instances, FBS was removed for periods ranging from 16-24 hours, and re-introduced with test compound addition. After 24 hrs, test compounds and vehicle controls were added to appropriate wells such that the final volume was 100 μl in each well. The cells were cultured for the desired test exposure period (72 hours) at 37° C. and 5% CO2. The assay plates were removed from 3° C. incubator and 20 μl/well of CellTiter-Blue® Reagent was added. The plates were incubated using standard cell culture conditions for 1-4 hours. Afterwards, the plates were shaken for 10 seconds and florescence was recorded at 560/590 nm using a Cytation 3 spectrophotometer. IC50 values were determined using non-linear regression analysis with GraphPad Prism 6.0 (GraphPad Software Inc.).

LN-229 = test: Cell viability, glioblastoma LN-229; assay type: cell-based; conditions: Homo sapiens, glioblastoma cell line
Procedure: as §2

hERG channel = hERG channel (Homo sapiens, UniProt Q12809); test: cell-based
U118MG = test: Cell viability, glioblastoma U118MG; assay type: cell-based; conditions: Homo sapiens, U-118-MG; glioblastoma cell line
Procedure: as §2

[2] = Intrinsic clearance in mouse hepatocytes

T1 sequence (Q9GZZ9 whole entry): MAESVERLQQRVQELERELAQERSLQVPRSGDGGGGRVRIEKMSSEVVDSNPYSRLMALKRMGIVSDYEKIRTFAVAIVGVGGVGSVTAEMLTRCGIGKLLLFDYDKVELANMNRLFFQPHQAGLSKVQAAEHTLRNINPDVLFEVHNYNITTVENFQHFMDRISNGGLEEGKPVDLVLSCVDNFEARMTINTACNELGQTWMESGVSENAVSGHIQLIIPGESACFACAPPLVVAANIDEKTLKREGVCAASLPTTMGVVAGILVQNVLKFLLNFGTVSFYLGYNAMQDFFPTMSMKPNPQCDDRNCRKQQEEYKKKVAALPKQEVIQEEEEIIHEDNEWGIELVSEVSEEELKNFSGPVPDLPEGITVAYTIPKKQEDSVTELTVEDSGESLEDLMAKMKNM
Sequence of hERG channel (Q12809 whole entry): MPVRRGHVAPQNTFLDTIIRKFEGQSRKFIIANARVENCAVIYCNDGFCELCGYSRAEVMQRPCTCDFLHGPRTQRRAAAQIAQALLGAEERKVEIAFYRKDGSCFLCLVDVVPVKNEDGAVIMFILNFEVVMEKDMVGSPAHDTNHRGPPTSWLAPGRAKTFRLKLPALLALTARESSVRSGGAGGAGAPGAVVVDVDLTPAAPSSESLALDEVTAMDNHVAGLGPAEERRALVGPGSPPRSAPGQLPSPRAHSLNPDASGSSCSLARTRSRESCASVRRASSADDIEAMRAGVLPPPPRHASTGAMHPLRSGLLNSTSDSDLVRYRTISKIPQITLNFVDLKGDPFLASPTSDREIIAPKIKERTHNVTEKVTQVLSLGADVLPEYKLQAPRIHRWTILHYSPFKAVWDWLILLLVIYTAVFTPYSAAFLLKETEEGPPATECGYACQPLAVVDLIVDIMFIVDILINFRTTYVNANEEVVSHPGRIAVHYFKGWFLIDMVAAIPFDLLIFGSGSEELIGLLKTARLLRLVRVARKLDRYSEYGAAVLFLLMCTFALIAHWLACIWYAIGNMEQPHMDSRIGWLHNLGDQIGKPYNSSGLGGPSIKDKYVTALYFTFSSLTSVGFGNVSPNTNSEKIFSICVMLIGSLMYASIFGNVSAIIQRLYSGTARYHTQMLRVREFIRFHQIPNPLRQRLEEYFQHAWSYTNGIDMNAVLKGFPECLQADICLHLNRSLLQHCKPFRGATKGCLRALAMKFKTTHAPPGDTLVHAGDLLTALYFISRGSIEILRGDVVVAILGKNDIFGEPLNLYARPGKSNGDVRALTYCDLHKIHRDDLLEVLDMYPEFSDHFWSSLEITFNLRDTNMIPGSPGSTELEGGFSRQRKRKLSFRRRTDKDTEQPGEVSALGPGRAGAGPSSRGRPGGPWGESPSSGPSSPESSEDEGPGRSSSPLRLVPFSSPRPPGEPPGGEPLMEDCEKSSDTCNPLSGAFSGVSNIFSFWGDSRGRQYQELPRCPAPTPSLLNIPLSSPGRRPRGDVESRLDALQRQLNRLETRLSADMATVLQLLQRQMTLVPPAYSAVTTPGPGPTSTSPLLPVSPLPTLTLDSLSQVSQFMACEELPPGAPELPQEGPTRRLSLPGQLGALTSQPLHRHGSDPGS

pIC50 (U87MG): 5.54
pIC50 (OCI-AML3): 5.25
pIC50 (D425): 6.10
increase in T1/2 as compared to Batabulin [1]: greater than 7 fold
pIC50 (MV4-11; AML cell line, 72 hours): 6.33
pIC50 (MV4-11; AML, Table 4): 6.22
pIC50 (LN-229): 5.52
pIC50 (U118MG): 4.99
half-life at 1 μM [2]: 184 min
Structure (SMILES): O=S(=O)(c1c(F)c(F)c(F)c(F)c1F)N(Cc1ccc(F)cc1)C1CC1 [Compound I-1, N-cyclopropyl-2,3,4,5,6-pentafluoro-N-(4-fluorobenzyl)benzenesulfonamide]
pIC50 (PL-21): 5.46
covalent modification of UBA5 (free fluoride detection) (UBA5): Fluoride was released; also recorded: covalently modifies UBA5
competitive binding / inhibition of 32 bromodomain targets (bromodomains): negligible competitive binding; also recorded: does not inhibit
pIC50 (AR230): 5.39
reactivity towards Cys-containing proteins (free fluoride release) (BSA, lysozyme, STAT3/5): no significant fluoride release; also recorded: unreactive
pIC50 (hERG channel): 4.76
